System: naïve FluNP CD4 T cells
Experiment: Activation of naïve FluNP CD4 T cells by peptide-pulsed BMDC in vitro
Assay type: cell-based, mouse
Conditions: CD69, CD25, Nur77 assays, 2d in vitro

NP311–325: immunodominant, highly conserved IAV nucleoprotein (NP) epitope presented by I-A^b; parent peptide of the panel (QVYSLIRPNENPAHK)
dose for peak responses, lower than the middle peptides (A7, K5): 100 fold

— PMC10247507 (Journal of immunology (Baltimore, Md. : 1950), 2023)
